Measured values published in patent US20160220581A1, “CHROMIUM COMPOSITIONS FOR THE TREATMENT OR PREVENTION OF DIABETIC RETINOPATHY” (JDS Therapeutics, LLC, priority 2015, published 2016).

Tests used:
Type in all cases: in vivo, rat
diabetic rats = experiment: CrHis supplementation in STZ-induced diabetic rats: body weight and blood/serum biochemical parameters
Protocol: (§1) Diabetes was induced with streptozotocin [(STZ), 55 mg/kg] by intraperitoneal injection in male Long-Evans rats. Three weeks after STZ injection, rats were divided into four groups, namely, untreated normal controls, normal rats receiving CrHis (110 μg/kg/day); untreated diabetics and diabetics treated with CrHis (110 μg/kg/day) orally for 12 weeks.
(§2) Twenty eight Long Evans rats per experiment, aged 8 weeks with 250±20 g of body weight were used in these experiments. All the animals were kept and maintained under standard guidelines. The animals were kept and maintained at 22±2° C., humidity of 55%±5% and 12/12-hour light/dark cycle. The rats were weighed every week and at the end of the study. Blood sample was collected from the tail vein of each rat for the measurement of biochemical efficacy and safety markers.
(§3) The CrHis was given in the water and administered at a concentration of 110 μg/kg bw/d) to get 9.16 μg elemental Cr (kg body/d), which is an equivalent dose of 614 μg Cr for a 70-kg adult human based on previous work. The Cr concentration of the water provided the control group was negligible (<1 μg/L). The water provided the Cr-supplemented group was initially prepared as a solution containing 3000 μg CrHis/L of water. The […] water was diluted to achieve the target Cr intake per group on the basis of measured water intake. To induce experimental diabetes, STZ was dissolved in citrate buffer (pH 4.5) and injected once intraperitoneally at a dose of 55 mg/kg to the remainder of the animals. A control group was given citrate buffer via intraperitoneal injection.
(§4) Fourteen rats were treated with STZ (55 mg/kg body weight) through intraperitoneal injection. All rats were then fasted for 16 hour prior to treatment, but they had access to drinking water. The animals were divided into 4 groups: group I (Control) rats received citrate buffer intraperitoneally and isotonic saline, orally; group II (Control+CrHis) rats were administered chromium histidinate orally (110 μg/kg body weight) daily for a period of […]; group III (Diabetic) rats received single injection of STZ (55 mg/kg body weight) intraperitoneally and were also given isotonic saline, orally for the duration of the study; group IV (Diabetic+CrHis) diabetic rats were administered chromium orally as chromium histidinate (110 μg/kg body weight) daily for a period of 12 weeks after the induction of diabetes.
(§5) Body weight and blood glucose concentrations were monitored weekly. Blood was collected from the tail vein of the rats. Blood glucose was determined by one touch glucometer (ACCU-Check Active, Roche Diagnostics, Mannheim, Germany) after the injection for 72 h. Before STZ injection, glucose concentrations of study rats and controls were measured and compared.
(§6) Blood samples were centrifuged at 3000×g for 10 min and sera were separated. Serum glucose concentrations were measured by using ACCU-Chek Active (Roche Diagnostics, Basel, Switzerland). Serum insulin levels were measured with the Rat Insulin Kit (Linco Research, St Charles, Mo.) by enzyme-linked immunosorbent assay (ELISA, Elx-800, BioTek Instruments, Winooski, Vt.). Serum concentrations of total cholesterol (TC) were measured by diagnostic kits (Sigma Diagnostics, St Louis, Mo.). Blood glycosylated haemoglobin (HbAlc) was also measured by routine kit (Alfabiotech, Milano, Italy) using the autoanalyzer.
Data were analyzed statistically using one-way ANOVA. In the analyses for the biomarker(s), the repeated statement was added in the general linear model. The group differences were attained by the Fisher's multiple comparison test [Statistical Package for the Social Sciences (SPSS)]. A P value of less than 0.05 was considered significant.

normal rats = experiment: CrHis supplementation in normal rats: body weight and blood/serum biochemical parameters; conditions: CrHis group, CrHis 110 μg/kg/day orally
Protocol: as §1, §2, §3, §4, §5, §6
Data were analyzed statistically using one-way ANOVA. […]

[1] = tested on: glucose transporter 1 (GLUT 1); experiment: Western blot of retina GLUT 1 expression in diabetic rats; conditions: diabetic rats treated with CrHis, P<0.05, FIG. 1 Panel A
Protocol: as §1
(§7) After rats were sacrificed, both eyes were either (1) enucleated and frozen at −80° C. for the measurements of the target biomarker(s) and/or other analysis or (2) are examined immediately post-sacrifice for morphological changes. […]
(§8) Equal amounts of protein (50 μg) were electrophoresed and subsequently transferred onto a nitrocellulosemembrane (Schleicher and Schuell Inc., Keene, N.H., USA). […] Bands were analyzed densitometrically using an image analysis system (Image J; National Institute of Health, Bethesda, USA).
(§9) General procedures were conducted as described above. […] The retina MDA content was measured by high performance liquid chromatography (HPLC, Shimadzu, Tokyo, Japan) using a Shimadzu UV-vis SPD-10 AVP detector and a CTO-10 AS VP column in a mobile phase consisting of 30 mM KH2PO4 and methanol (82.5+17.5, v/v; pH 3.6) at a flow rate of 1.2 ml/min. Column effluents were monitored at 250 nm and the volume was 20 μl. […]
(§10) Data are means of quadruplets of assays and expressed as relative to control (%). […]

[2] = tested on: glucose transporter 3 (GLUT3); experiment: Western blot of retina GLUT3 expression in diabetic rats; conditions: diabetic rats treated with CrHis, P<0.05, FIG. 1 Panel B
Protocol: as §1, §7, §8, §9, §10

retina insulin = experiment: Western blot of retina insulin expression in diabetic rats; conditions: diabetic rats treated with CrHis, P<0.05, FIG. 1 Panel C
Protocol: as §1, §7, §8, §9, §10

[3] = tested on: retina malondialdehyde (MDA); experiment: Retina MDA content by HPLC in diabetic rats; conditions: diabetic rats treated with CrHis, FIG. 1 Panel D
Protocol: as §1
General procedures were conducted as described above. After rats were sacrificed, both eyes were enucleated and frozen at −80° C. for the measurements of MDA, GLUT 1, GLUT3 and insulin. The retina MDA content was measured by high performance liquid chromatography (HPLC, Shimadzu, Tokyo, Japan) using a Shimadzu UV-vis SPD-10 AVP detector and a CTO-10 AS VP column in a mobile phase consisting of 30 mM KH2PO4 and methanol (82.5+17.5, v/v; pH 3.6) at a flow rate of 1.2 ml/min. Column effluents were monitored at 250 nm and the volume was 20 μl. The retina homogenate (10%, w/v) was prepared in 10 mM phosphate buffer (pH 7.4), centrifuged at 13,000×g for 10 min at 4° C., and the supernatant was collected and stored at −80° C. for MDA analysis.

retina of diabetic rats = experiment: Histologic examination of retina in diabetic rats
Protocol: as §1
After the eye extirpation, tissue (retina) of each rat was also examined grossly. The tissue was removed for histologic study, washed with normal saline, and immersion-fixed in 10% buffered formalin immediately upon removal. They were gradually dehydrated, embedded in paraffin, cut into 5-μm sections, and stained with hematoxylin and eosin for histologic examination according to standard procedures.
General procedures were conducted as described above. Retinas were highly organized in the normal (control) rats, with intact layers. The retinas were disorganized in the diabetic rats with impaired layers. […] Similar experiments are conducted with other chromium species such as chromium nicotinate and chromium picolinate.

retinal lipid oxidation = experiment: Retinal lipid oxidation by LC-MS of retinal lysate (Example 3); conditions: versus other chromium complexes at equivalent total dosages of chromium
Protocol: (§11) General procedures are conducted as described above. Retinal lipids are extracted from the retinal cellular lysate and characterized by liquid chromatography-mass spectrometry.

retinal photoreceptors = experiment: Free radical oxidation of retinal photoreceptors (Example 4); conditions: versus other chromium complexes at equivalent total dosages of chromium
Protocol: as §11

[4] = tested on: hemoglobin glycation and/or retinal protein glycation; experiment: Hemoglobin glycation and retinal protein glycation (Example 5); conditions: versus other chromium complexes at equivalent total dosages of chromium
Protocol: General procedures are conducted as described above. […]. Retinal proteins are extracted from the retinal cellular lysate and characterized by liquid chromatography-mass spectrometry and/or Western Blotting.

[5] = tested on: retinal lipoprotein membrane content; experiment: Loss of retinal lipoprotein membrane content (Example 6); conditions: versus other chromium complexes at equivalent total dosages of chromium
Protocol: as §11

[6] = tested on: retinal capillary basement membrane; experiment: Retinal capillary basement membrane thickening (Example 7); conditions: versus other chromium complexes at equivalent total dosages of chromium
Protocol: General procedures are conducted as described above. Retinal capillary basement membrane thickening is characterized by physical examination of the eye using standard techniques.

retinal microangiopathy = experiment: Retinal microangiopathy (Example 8); conditions: versus other chromium complexes at equivalent total dosages of chromium
Protocol: General procedures are conducted as described above. Retinal microangiopathy is characterized using standard ophthalomogic techniques.

retinal hard exudates = experiment: Retinal hard exudates (Example 9); conditions: versus other chromium complexes at equivalent total dosages of chromium
Protocol: General procedures are conducted as described above. Retinal hard exudates are extracted from the retinal cellular lysate and characterized by liquid chromatography-mass spectrometry.

diabetic retinopathy = experiment: Co-administration of chromium histidinate with insulin or metformin in diabetic retinopathy (Example 10)
Protocol: General procedures are conducted as described above. Co-administration of chromium histidinate with insulin or metformin is performed. Retinal biomarker(s) are extracted from the retinal cellular lysate and characterized by liquid chromatography-mass spectrometry.

[7] = STZ + CrHis group, diabetic rats, CrHis 110 μg/kg/day orally for 12 weeks
[8] = diabetic retinopathy rats treated with CrHis

With chromium histidinate [CrHis] the “Body weight, change in words” value (diabetic rats; CrHis-treated diabetic rats compared to the untreated diabetic group, P<0.001) was “significantly increased”, the Body weight (diabetic rats; [7]) was 250 g and the Glucose (diabetic rats; [7]) was 290 mg/dL. For the same substance, the Glycosylated hemoglobin (diabetic rats; [7]) was 0.45 mg/g, the Insulin (diabetic rats; [7]) was 25.0 μU/mL and the Total cholesterol (diabetic rats; [7]) was 218 mg/dL. The “Blood glucose level, change in words” value (diabetic rats; [8]) was “significant increases”, the “HbAlc level, change in words” value (diabetic rats; [8]) was “significant increases” and the “Insulin level, change in words” value (diabetic rats; [8]) was “significant increases”. For the same substance, the Body weight (normal rats) was 340 g, the Glucose (normal rats) was 100 mg/dL and the Glycosylated hemoglobin (normal rats) was 0.20 mg/g. The Insulin (normal rats) was 50.3 μU/mL, the Total cholesterol (normal rats) was 80 mg/dL and the “Expression of GLUT1 in the retina” value [1] was “reversed these changes to near control levels”. For the same substance, the “Expression of GLUT3 in the retina” value [2] was “reversed these changes to near control levels”, the “Expression of insulin in the retina” value (retina insulin) was “reversed these changes to near control levels” and the “MDA expression in retina” value [3] was “statistically significant reduction”. For the same substance, the “Retina organization (histology)” value (retina of diabetic rats; CrHis group compared to the diabetes group) was “surprisingly improved”, the “Reducing the physiological effects of diabetic retinopathy” value (retina of diabetic rats; versus other chromium complexes at equivalent total dosages of chromium) was “more efficacious” and the “Reducing the retinal lipid oxidation” value (retinal lipid oxidation) was “more efficacious”. The “Reducing the free radical oxidation of retinal photoreceptors” value (retinal photoreceptors) was “more efficacious”, the “Reducing hemoglobin glycation and/or retinal protein glycation” value [4] was “more efficacious” and the “Decreasing the loss of retinal lipoprotein membrane content” value [5] was “more efficacious”. For the same substance, the “Preventing retinal capillary basement membrane from thickening” value [6] was “more efficacious”, the Decreasing microangiopathy (retinal microangiopathy) was “more efficacious” and the Reducing hard exudates (retinal hard exudates) was “more efficacious”. The “Effect in treating diabetic retinopathy” value (diabetic retinopathy) was “synergistic effect”.
